Assay [1] has as its system HT-1080 cells. Nature of the assay: DNA synthesis (tritiated thymidine incorporation) in HT-1080 cells. Particulars: Homo sapiens, 144 h incubation, mean ± SD of two to four experiments. It counts as cell-based. As to the method: (§1) DNA synthesis: NYH SCLC, HT-1080, Colo-320, PC-3 and H460 cells (7.5×10^3 cells/ml) were seeded in tissue culture vessels and the test compound were added 2 h after plating. Following an incubation for 144 h tritiated thymidine (5 CI/mmol, Amersham Pharmacia Biotech) was added to the culture at the concentration of 1 μCi/ml, and the cells were incubated for additional 4 h. The incorporated thymidine was measured with a β-counter. Each compound concentration was tested in triplicate.

The target of assay [2] is T1, IKK (Homo sapiens, UniProt O14920).
T1 construct: IKK was immunoprecipitated with an IKKα/β antibody; endogenous in cells; host or cells: THP-1 cells stimulated with 1 μg/ml LPS; whole cell extract immunoprecipitated with an IKKα/β antibody (Santa Cruz)
T1 sequence (O14920 whole entry): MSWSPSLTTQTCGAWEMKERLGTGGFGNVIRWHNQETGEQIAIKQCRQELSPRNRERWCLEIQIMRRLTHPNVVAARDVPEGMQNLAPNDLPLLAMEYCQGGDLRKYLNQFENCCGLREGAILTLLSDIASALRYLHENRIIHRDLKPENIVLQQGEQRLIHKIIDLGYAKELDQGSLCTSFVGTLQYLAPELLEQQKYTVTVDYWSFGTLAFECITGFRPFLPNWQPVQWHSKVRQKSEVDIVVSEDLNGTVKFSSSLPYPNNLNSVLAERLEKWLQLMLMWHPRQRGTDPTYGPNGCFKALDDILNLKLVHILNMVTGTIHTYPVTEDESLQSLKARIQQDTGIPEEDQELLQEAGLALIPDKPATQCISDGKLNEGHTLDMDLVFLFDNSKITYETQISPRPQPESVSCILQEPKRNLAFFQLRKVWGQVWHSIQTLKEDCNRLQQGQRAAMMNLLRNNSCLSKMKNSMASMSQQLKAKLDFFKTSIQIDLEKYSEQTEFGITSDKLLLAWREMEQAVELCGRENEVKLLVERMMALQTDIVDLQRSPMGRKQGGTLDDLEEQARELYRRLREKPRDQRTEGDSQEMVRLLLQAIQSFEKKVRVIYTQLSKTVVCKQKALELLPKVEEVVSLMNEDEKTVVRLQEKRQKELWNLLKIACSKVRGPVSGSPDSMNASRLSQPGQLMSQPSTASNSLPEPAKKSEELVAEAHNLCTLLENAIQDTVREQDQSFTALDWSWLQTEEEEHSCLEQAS
T1 sequence (O15111 whole entry partner): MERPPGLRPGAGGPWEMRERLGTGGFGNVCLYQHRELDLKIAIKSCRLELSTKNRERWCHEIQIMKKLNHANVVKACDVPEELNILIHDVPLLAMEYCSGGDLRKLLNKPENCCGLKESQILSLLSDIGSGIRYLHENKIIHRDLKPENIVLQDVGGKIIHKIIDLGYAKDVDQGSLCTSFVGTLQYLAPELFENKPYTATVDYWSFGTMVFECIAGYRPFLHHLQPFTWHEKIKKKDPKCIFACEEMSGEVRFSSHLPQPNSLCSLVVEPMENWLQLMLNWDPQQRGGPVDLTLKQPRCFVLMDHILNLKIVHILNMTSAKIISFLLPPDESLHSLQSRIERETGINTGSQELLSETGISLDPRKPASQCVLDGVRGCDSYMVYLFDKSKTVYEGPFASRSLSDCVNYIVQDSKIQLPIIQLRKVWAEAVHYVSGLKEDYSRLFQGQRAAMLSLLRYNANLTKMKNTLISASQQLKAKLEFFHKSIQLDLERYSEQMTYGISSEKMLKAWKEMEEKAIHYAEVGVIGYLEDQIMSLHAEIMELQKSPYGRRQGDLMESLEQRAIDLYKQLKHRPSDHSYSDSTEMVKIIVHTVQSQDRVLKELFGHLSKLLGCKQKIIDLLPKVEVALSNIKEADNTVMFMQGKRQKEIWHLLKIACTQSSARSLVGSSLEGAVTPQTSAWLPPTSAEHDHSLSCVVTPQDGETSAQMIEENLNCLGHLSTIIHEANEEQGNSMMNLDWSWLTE
T1 sequence (Q9Y6K9 whole entry partner): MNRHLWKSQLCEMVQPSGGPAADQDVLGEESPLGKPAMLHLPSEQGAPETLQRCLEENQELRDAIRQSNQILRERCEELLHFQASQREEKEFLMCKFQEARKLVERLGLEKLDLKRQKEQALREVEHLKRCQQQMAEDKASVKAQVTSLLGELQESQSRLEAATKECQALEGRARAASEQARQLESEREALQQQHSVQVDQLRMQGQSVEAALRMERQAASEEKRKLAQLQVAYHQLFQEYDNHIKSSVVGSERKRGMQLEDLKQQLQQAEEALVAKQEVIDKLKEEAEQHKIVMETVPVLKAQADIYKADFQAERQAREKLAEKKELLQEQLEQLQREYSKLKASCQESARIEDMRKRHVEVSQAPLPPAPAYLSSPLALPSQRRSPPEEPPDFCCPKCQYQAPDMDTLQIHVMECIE
Nature of the assay: In vitro kinase assay: IKK immunoprecipitated from LPS-stimulated THP-1 cells, GST-IκBα phosphorylation. Particulars: 30 min pretreatment of LPS-activated IKK. It counts as biochemical. The procedure: In vitro kinase assay: THP-1 cells (1×10^7 cells) were stimulated with 1 μg/ml LPS for the indicated time periods and whole cell extracts were prepared as described above. IKK was immunoprecipitated with an IKKα/β antibody (raised against amino acid 470-755 of IKKβ of human origin but partially cross-reactive with IKKα as detected by Western Blotting (Santa Cruz Biotechnology Inc.). Compound A was diluted in kinase buffer (25 mM HEPES pH 7.5, 10 mM magnesium acetate, 50 μM ATP) at the appropriate concentrations. The compound was added to the beads for 30 min. at 30° C. The kinase reaction was started by adding 2.5 μg of the GST-IκBα substrate (Santa Cruz Biotechnology Inc.) together with 2 μCi γ-^32P-ATP (Amersham Pharmacia Biotech) per sample. The reaction was allowed to proceed for 30 min. at 30° C., and the IKK activity was measured by the amount of radioactive-labelled GST-IκBα bands, quantified by the STORM860 Phospho-Imager.
A general problem with the kinase assay is prestimulation of the kinase. To achieve a value for the zero-point, the LPS-activated IKK mixture was incubated with 20 μM myricetin (Sigma-Aldrich), which is a known IKKβ inhibitor (S. H. Tsal et al., J. Cell Biochem. 74, 1999, pp. 606-615). This value was subtracted from the all other values. All data are expressed as percentage of the activity of the LPS-activated IKKβ kinase treated with 0.1% DMSO.

Assay [3] deals with Colo-320 DM. Nature of the assay: Colo-320 DM xenografts in nude mice, tumour growth. To be noted: Colo-320 xenograft, 50 mg/kg, oral gavage. It counts as in vivo, NMRI nu/nu mice. The procedure:
All of the animal experiments were conducted according to the guidelines and ethical standards of the Danish Committee for Animal Experiments. Female NMRI nu/nu mice 6 weeks of age were purchased from M&B (Ry, Denmark). The mice were allowed an acclimatisation period of 1-3 weeks before start of the experiments. The nude mice were housed in Scantainers under semi-sterile conditions and all handling of mice was performed in a laminar flow bench.
Colo-320 DM, NMRI nu/nu mice were injected with 5×10^6 cells in 0.2 ml media s.c. in each flank and tumour size was measured as mentioned above. Compound A was given for three weeks by oral gavage from day 8 when the tumour size was about 20 mm^2. Each treatment group consisted of 10 mice.
Statistical Methods In the animal models, tumour sizes were expressed by the mean of the trends in each treatment group. The trend is the linear increment or tumour size, where tumour size is the square root of the (mean) area of the tumour(s). Comparison with controls was expressed as T/C % and calculated as follows:
A=(overall mean tumour size at baseline+mean trend of treatment*intended days of treatment) […]
Overall mean tumour size at baseline=pooling all treatments this is the mean of all baseline values. For each mouse the baseline value is calculated as the square root of the (mean) area of the tumour(s). […]

Assay [4] deals with NF-κB. The assay is described as follows: NF-κB-dependent luciferase assay in HT-1080 cells, TNF-α stimulation. It counts as cell-based, human. Particulars: Homo sapiens, compound 24 h before TNF-α 50 ng/ml 6 h, mean ± SD. The procedure:
(§2) The NF-κB-luciferase reporter plasmid (pBIIX) and pRL-TK control vector described in Example 1 were used for the luciferase assay,
The HT-1080 cells were seeded at a density of 3×10^4 cells/cm^2 in 6 well-plates. The following day, the cells were co-transfected with construct DNA and pRL-TK vector using FuGene Transfection Reagent. A mixture of 10 μl Fugene and 90 μl serum free medium (per well) was prepared and Incubated for 5 min at room temperature. Then, this mixture was transferred to a mixture of construct DNA (1.25 μg per well) and pRL-TK vector (0.25 μg per well), gently mixed, incubated for 15 min at room temperature and added to the cells. The cells were treated at 37° C. with compound A (10^−12−10^−5 M) or DMSO for 24 h before stimulation with TNF-α (50 ng/ml) for 6 h.
(§3) The cell lysate was assayed for luciferase activity using the Dual luciferase kit as described by the manufacturer (Promega). All transfections were performed in triplicate. Firefly luciferase activity was corrected for differences in transfection efficiency by normalizing it to the measured Renilla luciferase activity.
(§4) NF-κB activity was measured by the luciferase assay described in Example 1.

Assay [5] has as its system Colo-320 cells. The assay is described as follows: DNA synthesis (tritiated thymidine incorporation) in Colo-320 cells. Type of assay: cell-based. To be noted: Homo sapiens, 144 h incubation, mean ± SD of two to four experiments. As to the method:
as §1
In general terms: Incorporation of labelled thymidine or its analogues reports DNA synthesis.

The test system of assay [6] is NF-κB. The assay is described as follows: NF-κB-dependent luciferase assay in PC-3 cells, TNF-α stimulation. Type of assay: cell-based, human. Particulars: compound 24 h before TNF-α 50 ng/ml 6 h. As to the method:
as §2
The PC-3 cells were seeded at a density of 3×10^4 cells/cm^2 in 6 well-plates. The following day, the cells were co-transfected with construct DNA and pRL-TK vector using DOTAP liposomal transfection reagent (Boehringer Mannheim). The construct DNA (4.0 μg per well), the pRL-TK vector (1.0 μg per well), DOTAP (16.7 μl per well) and dH2O (total volume 100 μl per well) were carefully mixed and incubated for 15 min at 37° C. A growth medium without serum (900 μl per well) was added and the transfection mixture (1 ml per well) was added to the cells. After 4 h at 37° C., a growth medium with 20% FBS (1 ml per well) was added. The cells were treated at 37° C. with compound A (10^−12−10^−5 M) or DMSO for 24 h before stimulation with TNF-α (50 ng/ml) for 6 h.
as §3, §4

Assay [7] relates to PC-3 cells. Nature of the assay: DNA synthesis (tritiated thymidine incorporation) in PC-3 cells. Type of assay: cell-based. Particulars: Homo sapiens, 144 h incubation, mean ± SD of two to four experiments. The procedure: as §1

The values that follow come from US6642215B2 (Leo Pharma A/S, priority 2001, dated 2003).

Read-outs that look alike come from different tables or passages of the source.

For orientation: IC50 means the concentration at which inhibition is half-maximal.

`N#CNC(=Nc1ccncc1)NCCCCCCOc1ccc(Cl)cc1` [compound A, N-(6-(4-chlorophenoxy)hexyl)-N′-cyano-N″-(4-pyridyl)guanidine]: the IC50 in assay [1] is 5.6 ± 0.3 nM; in assay [2] (four independent experiments, read-out: IKK activity IC50, range of values) it was 0.9 to 70 nM; in assay [2] (mean of four independent experiments, read-out: IKK activity, mean IC50 value), 8 nM; in assay [4], 2480 ± 775 nM; in assay [5] it was 5.4 ± 0.1 nM; in assay [7], 5.6 ± 0.3 nM. In addition, in assay [3], the “In vivo xenografts in nude mice T/C (%)” value was −50%. The “NF-κB activity (IC50 nM)” value in assay [6] is reported as “no inhibition”.
